2 molecules from patent US10407445B2, “Hepatitis C virus inhibitors” (ENANTA PHARMACEUTICALS, INC., priority 2013, dated 2019) can be followed below.

pEC50: −log10 of the molar value.

Assay [1] relates to GT2a-2b-MD2b replicon. The assay is described as follows: Stable replicon assay, comparison to daclatasvir, GT2a-2b-MD2b. The format is cell-based. Conditions: Hepatitis C virus. An excerpt:
The plasmid pSG-hRlucNeo-JFH1 was generated from pSG-Neo-JFH1 (Kato et al. 2003, Gastroentrology 125:1808-1817). A fragment containing the JFH-1 5′ NTR-hRluc-Neo gene and two unique restriction sites (AgeI and PmeI) was synthesized (Integrated DNA Technologies, Coralville, Iowa). The resulting plasmid was digested with AgeI and PmeI and the excised fragment (5′NTR-hRluc-Neo) was ligated into pSG-Neo-JFH1 digested with the same enzymes to generate pSG-hRlucNeo-JFH1. To allow expression of heterologous NS5A sequences, an NS5A shuttle vector was generated from pSG-Neo-JFH1, in which the entire coding sequence of NS5A plus the first eight codons of NS5B were replaced with an AfeI restriction site. This was done by Infusion cloning (Clontech, Mountain View, Calif.) from two PCR products that were generated using pSG-Neo-JFH1 as a template and the following primer pairs: […]
Stable HCV replicon cell lines were grown in complete media (Dulbecco's modified Eagle medium [DMEM], 2 mM L-glutamine, 0.1 mM essential amino acids, 1 mM sodium pyruvate, 10% fetal bovine serum) with the addition 500 μg/ml […] (G418). […] For stable and transient replicon assays, luciferase activity of compound-treated cells was measured relative to DMSO-treated cells after 72 h incubation using RENILLA-GLO™ Luciferase Assay (Promega). […]
(Replicon systems follow genome replication, usually without infectious particles.)

Assay [2] deals with HCV genotype 1b replicon Huh7-lunet cells. The assay is described as follows: Resistance barrier analysis in HCV genotype 1b replicon cells (crystal violet staining). It counts as cell-based, Hepatitis C virus. Particulars: 2×EC50, 3 weeks in the presence of G418. As to the method: Stable HCV genotype 1b replicon Huh7-lunet cells were plated in 100 mm cell culture dishes (1.5×10^5 and 3×10^5 cells/dish for DMSO control and compound treated cells, respectively) and incubated for 24 hr (37° C., 5% CO2) prior to compound addition. Compounds (solubilized in DMSO) were prepared in complete media (0.5% DMSO final) and added to cells. Cells were maintained in the presence of compound (or DMSO) and G418 (500 μg/mL) for 3 weeks with media replacement two times per week. Cells were then fixed (4% paraformaldehyde, 30 min at room temperature) and stained (0.5% crystal violet/25% methanol, 20 min room temperature) to allow visualization of surviving cells. Plates were then washed with water to remove excess stain and left to air dry overnight prior to imaging (BioRad Gel Doc XR+Molecular Imager).
FIG. 1 illustrates comparison of a compound of the invention to daclatasvir in a test that provides a qualitative indication of the occurrence of resistance. […] The control plate, with DMSO alone (no compound 16 or daclatasvir), is almost completely opaque.

In general, pEC50 refers to the EC50 on a negative log10 scale, so that one unit is a factor of ten. With `COC(=O)N[C@H](C(=O)N1C[C@]2(CCCOC2)C[C@H]1c1ncc(-c2ccc(-c3ccc4c(ccc5nc([C@@H]6C[C@@H]7CCC[C@@H]7N6C(=O)[C@@H](NC(=O)OC)C(C)C)[nH]c54)c3)cc2)[nH]1)C(C)C` [Compound 16], in assay [1], the pEC50 was 7.68. Moreover, the “surviving replicon cells (crystal violet staining)” value in assay [2] was “almost entirely prevented replicon cell survival”.
In the case of `COC(=O)N[C@H](C(=O)N1CCC[C@H]1c1nc(-c2ccc(-c3ccc(-c4c[nH]c([C@@H]5CCCN5C(=O)[C@@H](NC(=O)OC)C(C)C)n4)cc3)cc2)c[nH]1)C(C)C` [Daclatasvir, reference compound], the pEC50 in assay [1] was 7.48.
